From publication PMC6325219, “Preclinical Characterization of NVR 3-778, a First-in-Class Capsid Assembly Modulator against Hepatitis B Virus” (Antimicrobial Agents and Chemotherapy, 2018)
Like-named read-outs stand apart in the source and are kept apart here.

Tests used:
[1] = tested on: HBV core protein variant I105V; assay: Transient-transfection antiviral study in HepG2 cells, core variant I105V; format: cell-based, hepatitis B virus; settings: for EC50 FC, I105V: ratio of mean EC50 for core variant over wild-type HBV
Method: (§2) Cells were cotransfected with the HBV plasmids (100 ng/well) and a Gaussia expression plasmid (10 ng/well) (Thermo Scientific) using the Lipofectamine LTX Plus transfection reagent (Life Technologies). Transfection mixtures were removed after overnight incubation, and cells were treated with serially diluted NVR 3-778 at a final dimethyl sulfoxide (DMSO) concentration of 0.5%. After 3 days of incubation with the compound, the supernatants were collected and secreted Gaussia luciferase was measured using a Gaussia Flash luciferase assay kit (Thermo Scientific). […] Samples were diluted into lysis buffer (Affymetrix) containing 2.5 µg proteinase K (Affymetrix) at 50°C for 40 min. Intracellular encapsidated HBV DNA was denatured for 30 min at 25°C in 0.2 M NaOH (Sigma) and incubated with HBV DNA probes designed to hybridize to the minus-strand HBV DNA (Affymetrix). The denatured DNA was subsequently detected using a QuantiGene assay kit, according to the branched DNA (bDNA) assay recommended by the manufacturer (Affymetrix).

[2] = tested on: HBV; assay: Combination study of NVR 3-778 with nucleos(t)ide analogs in HepG2.2.15 cells (MacSynergy II, CalcuSyn); format: cell-based, hepatitis B virus (GT D)
Method: The effect of the compound combinations on cell viability was evaluated by measuring the intracellular ATP levels of HepG2.2.15 cells.
(§1) HepG2.2.15 cells were seeded in 96-well plates at a density of 40,000 cells/well and incubated with serially diluted compounds at a final DMSO concentration of 0.5%. In combination studies, cells were treated with compounds either alone or in combination after combining the compounds in a checkerboard format. In studies examining the effect of human serum, serially diluted NVR 3-778 was added into cell culture medium containing 0% to 40% human serum (BioreclamationIVT). Cells were incubated with the compounds for 3 days, after which the medium was removed, fresh medium containing the compounds was added to the cells, and the cells were incubated for another 3 days prior to harvesting of the supernatants or cells for antiviral assays. To quantify intracellular encapsidated rcDNA or encapsidated pgRNA, cells were first solubilized using lysis buffer containing 1% NP-40 and 10 mM CaCl2. The cytoplasmic fraction was then treated with S7 nuclease (6 units) to remove nonencapsidated nucleic acids, after which the S7 nuclease was inactivated by the addition of EDTA (0.5 M). To quantify extracellular HBV DNA or HBV RNA, supernatants from HepG2.2.15 cells were treated with Turbo DNase at 37°C for 60 min, followed by inactivation of DNase at 75°C for 15 min. The levels of HBV DNA were determined by a bDNA assay as described above (Affymetrix). Supernatants or cell lysates containing HBV RNA were treated with proteinase K (2.5 µg) at 50°C for 40 min, transferred to a capture plate containing HBV RNA probe sets, and hybridized overnight at 55°C. Captured HBV RNA was measured by the addition of a chemiluminescent substrate using a QuantiGene assay (Affymetrix). To determine the cytotoxicity effect of the compounds on proliferating cells, HepG2.2.15 cells were seeded in 96-well plates at a density of 10,000 cells/well and incubated with serially diluted compounds at a final DMSO concentration of 0.5% for 3 days, after which the medium was removed, fresh medium containing the compounds was added to the cells, and the cells were incubated for another 3 days. At day 6, the CellTiter-Glo reagent was added to the cells and viability was determined according to the manufacturer’s protocol (Promega). Luminescence signals were measured at 0.2 s using a Victor X4 multimode plate reader (PerkinElmer).
To determine percent inhibition, the mean background signal from wells containing only culture medium was subtracted from the signal for all other samples, and percent inhibition at each compound concentration was calculated by normalization to the signals for HepG2.2.15 cells treated with 0.5% DMSO. […] Both CalcuSyn and MacSynergy II (Ann Arbor, MI) software were used to evaluate the effect of compound combinations ([27]). After data analysis at the 95% confidence level, values of synergy or antagonism of <25 µM^2% were defined as insignificant, those between 25 and 50 µM^2% were defined as minor, those between 50 and 100 µM^2% were defined as moderate, and those of >100 µM^2% were defined as strong.

[3] = tested on: HBV; assay: De novo infection study using PHH; format: cell-based; settings: Hepatitis B virus
Method: Cryopreserved PHH (Life Technologies) were seeded at 40,000 cells/well 1 day before infection. The HBV inoculum, concentrated from the supernatants of HepG2.2.15 cells, was prepared at 200 genome equivalents/cell in PHH medium (DMEM containing 10% FBS and a supplement cocktail containing HEPES, L-proline, insulin epidermal growth factor, dexamethasone, and ascorbic acid-2-phosphate, as previously described) with 2% DMSO and 4% polyethylene glycol (PEG) 8000 (Sigma). Compounds were serially diluted in DMSO at 50-fold strength and added to PHH medium containing the HBV inoculum, prior to infecting the PHH. After overnight incubation, the infection mixtures were removed and the cells were replenished with PHH medium containing freshly diluted compounds. On day 5 and day 8 postinfection, the media containing the compounds were removed and the cells were replenished with PHH medium containing freshly diluted compounds. Supernatants and cells were harvested for antiviral and viability assays on day 11 postinfection. HBV DNA, HBsAg, and HBeAg were determined from the supernatants of infected PHH using bDNA assays (Affymetrix) and HBsAg or HBeAg chemiluminescence immunoassay kits (Autobio), as recommended by the manufacturers. Intracellular total HBV RNA mRNA and host mRNA levels were monitored by using the QuantiGene assays (Affymetrix) and probe sets that hybridized to the X region, which is common to all HBV transcripts, and the host β-actin mRNA, respectively.

[4] = tested on: HepG2.2.15 cells; assay: Cell viability of HepG2.2.15 cells (ATP levels, CellTiter-Glo); format: cell-based; settings: NVR 3-778 up to 4 μM and LMV up to 1.5 μM, alone or in combination, 6 days
Method: as §1, with “In” for “HepG2.2.15 cells were seeded in 96-well plates at a density of 40,000 cells/well and incubated with serially diluted compounds at a final DMSO concentration of 0.5%. In”, “To quantify extracellular HBV DNA or HBV RNA, supernatants from HepG2.2.15 cells were treated with Turbo DNase at 37°C for 60 min, followed by inactivation of DNase at 75°C for 15 min.” left out, “To determine the cytotoxicity effect of the compounds on proliferating cells, HepG2.2.15 cells were seeded in 96-well plates at a density of 10,000 cells/well and incubated with serially diluted compounds at a final DMSO concentration of 0.5% for 3 days, after which the medium was removed, fresh medium containing the compounds was added to the cells, and the cells were incubated for another 3 days.” left out

[5] = tested on: HBV core protein variant I105L; assay: Transient-transfection antiviral study in HepG2 cells, core variant I105L; format: cell-based, hepatitis B virus; settings: for EC50 FC, I105L: ratio of mean EC50 for core variant over wild-type HBV
Method: as §2

[6] = HepG2.2.15 cells, 6 days, LMV 0.15-1.5 μM
[7] = 264 h, PHH from three donors, compound added with inoculum, 11 days, read-out: EC50, HBV DNA
[8] = 264 h, PHH from three donors, compound added with inoculum, 11 days, read-out: EC50, HBeAg
[9] = 264 h, PHH from three donors, compound added with inoculum, 11 days, read-out: EC50, HBsAg
[10] = 264 h, PHH from three donors, compound added with inoculum, 11 days, read-out: EC50, intracellular HBV RNA
[11] = 264 h, PHH from three donors, compound added with inoculum, 11 days, read-out: EC90, HBV DNA
[12] = 264 h, PHH from three donors, compound added with inoculum, 11 days, read-out: EC90, HBeAg
[13] = 264 h, PHH from three donors, compound added with inoculum, 11 days, read-out: EC90, HBsAg
[14] = 264 h, PHH from three donors, compound added with inoculum, 11 days, read-out: EC90, intracellular HBV RNA
[15] = in combination with NVR 3-778, HepG2.2.15 cells, 6 days, MacSynergy II, 95% confidence

O=C(Nc1cc(F)c(F)c(F)c1)c1ccc(F)c(S(=O)(=O)N2CCC(O)CC2)c1 [NVR 3-778]
EC50 ([1]; Hepatitis B virus, HepG2, read-out: EC50, core variant I105V): 0.41 ± 0.11 µM
EC50 FC, I105V [1]: 1.8 fold
Effect of adding 0.4 μM NVR 3-778 to LMV on secreted HBV RNA [2, 6]: partially reversed the increase in the level of secreted HBV RNA induced by LMV
Effect of adding 2 μM and 4 μM NVR 3-778 to LMV on secreted HBV RNA [2, 6]: completely reverted the LMV effect
EC50 [3, 7]: 0.81 ± 0.18 µM
EC50 [3, 8]: 4.5 ± 0.82 µM
EC50 [3, 9]: 4.8 ± 0.98 µM
EC50 [3, 10]: 3.7 ± 0.22 µM
EC90 [3, 11]: 5.4 ± 2 µM
EC90 [3, 12]: 8.9 ± 1.2 µM
EC90 [3, 13]: 10.2 ± 3 µM
EC90 [3, 14]: 11.6 ± 2.7 µM
EC50 ([3]; PHH, de novo infection, range over HBsAg, HBeAg, HBV RNA, read-out: EC50 values against the production of HBV antigens and intracellular HBV RNA): 3.7 to 4.8 µM
Effect on cell viability [4]: did not affect cell viability
EC50 ([5]; Hepatitis B virus, HepG2, read-out: EC50, core variant I105L): 0.34 ± 0.13 µM
EC50 FC, I105L [5]: 1.5 fold

Nc1ccn([C@@H]2CS[C@H](CO)O2)c(=O)n1 [LMV, lamivudine, reference compound]
EC50 FC, I105V [1]: 0.84 fold
Antagonism [2, 15]: −14.3 μM^2%
Synergy [2, 15]: 5.1 μM^2%
CalcuSyn-predicted effect ([2]; in combination with NVR 3-778, based on overall CI): Additive
EC50 [3, 7]: 0.016 ± 0.01 µM
EC50 [3, 8]: > 30 µM
EC50 [3, 9]: > 30 µM
EC50 [3, 10]: > 30 µM
EC90 [3, 11]: 0.066 ± 0.01 µM
EC90 [3, 12]: > 30 µM
EC90 [3, 13]: > 30 µM
EC90 [3, 14]: > 30 µM
Effect on cell viability [4]: did not affect cell viability
EC50 FC, I105L [5]: 1.3 fold
